Measurements from PubChem BioAssay AID2060885 (Molecular Pharmacology Branch, DTP, NCI, 2025).

Tested on: NCI-H23 complex spheroids with HUVEC/MSC, viability
Assay: Anticancer human tumor NCI-H23 cell line growth inhibition [RAS];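 further: spheroids exposed to compound for 7 days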;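 on viability, T/C: 100% = DMSO vehicle control viability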
Details: for IC50: curve of first compound; for viability, T/C: stronger effect = lower value
From the text: RAS pathway inhibitors in Combinations in Complex Spheroids
A high-throughput screen of multi-cell type tumor spheroids was designed to identify active combinations of RAS pathway inhibitors and targeted small molecules. Complex spheroids include a stromal component modeled by human endothelial cells (HUVEC) and fibroblasts modeled by human mesenchymal stem cells (MSCs). The concentration ranges selected for each drug and investigational agent were based upon clinically achievable concentrations if the clinical Cmax of the agent was known.
Compounds. The drugs and investigational agents: abemaciclib (NSC768073), cobimetinib (NSC768068), divarasib (GDC6063, NSC841802), docetaxel (NSC628503), GDC-1971 (RLY-1971, NSC841576), gemcitabine (NSC613327), inavolisib (NSC800729), ipatasertib (NSC767898), KB-0742 (NSC834161), MRTX-1133 (NSC836407), osimertinib (NSC779217), RMC-4630 (NSC839698), RMC-6236 (NSC851965), RMC-6291 (NSC852671), Ro-3306 (NSC812927), sapanisertib (NSC764658), SN-38 (NSC673596), staurosporine (NSC755774), SY5609 (NSC837396), and tovorafenib (DAY101, NSC766906), were obtained from the National Cancer Institute (NCI) Developmental Therapeutics Program Chemical Repository. The FDA-approved anticancer drug set is available from the NCI Developmental Therapeutics Program. […] The stock solutions were prepared in dimethyl sulfoxide (DMSO, Sigma-Aldrich, St. Louis, MO, cat. D2650) at 800-fold the tested concentration and stored at -70 degrees C prior to their use. All drugs and investigational agents were tested over a range starting from a high concentration at or near the clinical Cmax and decreasing in half-log increments. If the clinical Cmax for an agent had not been determined, the highest concentration tested was 10 microM.
Cell Culture. All cells were maintained in an incubator at 37 degrees C and 5% CO2 with 95% humidity. The PDC lines were cultured according to standard operating procedures established by the NCI PDMR. All PDCs were thawed and cultured in Matrigel-coated flasks prepared with a working solution of 1X Ham's F-12 nutrient mix, without supplementation (Invitrogen, Waltham, MA, cat. 11765054), 100 U/mL penicillin-streptomycin (Invitrogen, cat. 15140122), and 2.5% Matrigel (Corning Inc., Corning, NY, cat. 354248) for the first three passages. The 362531-283-R-J2-PDC and 782815-120-R-J1-PDC lines were cultured in 6C/Colon 1B media, which includes advanced DMEM/F-12 (Thermo Fisher Scientific, cat. 12634028), 10 mM HEPES (Thermo Fisher Scientific, cat. 15630080), 1X GlutaMAX supplement (Thermo Fisher Scientific, cat. 35050061), 0.1 mg/mL primocin (InvivoGen, San Diego, CA, cat. ant-pm-2), 10% defined fetal bovine serum, heat inactivated (HyClone Laboratories Inc., Logan, UT, cat. SH30070.03HI), 50% L-WRN conditioned media (ATCC, cat. CRL-3276), 1.25 mM N-Acetyl-L-cysteine (Sigma-Aldrich, cat. A9165), 10 mM nicotinamide (Sigma-Aldrich, cat. N0636), 1X B-27 supplement (Thermo Fisher Scientific, cat. 17504044), 1X N-2 supplement (Thermo Fisher Scientific, cat. 17502048), 50 ng/mL human EGF (Thermo Fisher Scientific, cat. PHG0311), and 10 microM Y-27632 dihydrochloride (Tocris Bioscience, cat. 1254). The K12877-001-R-J1-PDC line was cultured in 6I media, which includes all 6C/Colon 1B media plus 10 ng/mL human FGF-10 (PeproTech, cat. 100-26), 1 ng/mL human FGF-2 (PeproTech, cat. 100-18B), 1 µM prostaglandin E2 (Tocris Bioscience, cat. 2296), […] hydrocortisone (Sigma-Aldrich, cat. H4001), and […] bovine insulin (Sigma-Aldrich, cat. I6634). The K86415-001-R-J1-PDC line was cultured in 6D media, which includes all 6C/Colon 1B media components minus the L-WRN conditioned media. The 485176-168-R4-J1-PDC was cultured in PANC media, which includes all 6C/Colon 1B media plus 100 ng/mL human FGF-10 (PeproTech, cat. 100-26), 500 nM SB-431542 (Selleckchem, cat. S1067), and 10 nM gastrin (Tocris Bioscience, cat. 3006). […]

C=CC(=O)Nc1cc(Nc2nccc(-c3cn(C)c4ccccc34)n2)c(OC)cc1N(C)CCN(C)C + C#Cc1c(F)ccc2cc(O)cc(-c3ncc4c(N5CC6CCC(C5)N6)nc(OCC56CCCN5CC(F)C6)nc4c3F)c12
IC50 (second compound 0.0316 µM): > 1 µM
IC50 (second compound 0.1 µM): > 1 µM
IC50 (second compound 0.316 µM): > 1 µM
IC50 (second compound 1 µM): > 1 µM
IC50 (second compound 3.16 µM): 0.0818 µM
IC50 (second compound 10 µM): < 0.00316 µM
viability, T/C (second compound 0.0316 µM, first compound 0.00316 µM): 101%
viability, T/C (second compound 0.0316 µM, first compound 0.01 µM): 128%
viability, T/C (second compound 0.0316 µM, first compound 0.0316 µM): 101%
viability, T/C (second compound 0.0316 µM, first compound 0.1 µM): 99.2%
viability, T/C (second compound 0.0316 µM, first compound 0.316 µM): 98.4%
viability, T/C (second compound 0.0316 µM, first compound 1 µM): 102%
viability, T/C (second compound 0.1 µM, first compound 0.00316 µM): 109%
viability, T/C (second compound 0.1 µM, first compound 0.01 µM): 113%
viability, T/C (second compound 0.1 µM, first compound 0.0316 µM): 95.7%
viability, T/C (second compound 0.1 µM, first compound 0.1 µM): 93.6%
viability, T/C (second compound 0.1 µM, first compound 0.316 µM): 101%
viability, T/C (second compound 0.1 µM, first compound 1 µM): 112%
viability, T/C (second compound 0.316 µM, first compound 0.00316 µM): 104%
viability, T/C (second compound 0.316 µM, first compound 0.01 µM): 122%
viability, T/C (second compound 0.316 µM, first compound 0.0316 µM): 95.5%
viability, T/C (second compound 0.316 µM, first compound 0.1 µM): 90%
viability, T/C (second compound 0.316 µM, first compound 0.316 µM): 89.8%
viability, T/C (second compound 0.316 µM, first compound 1 µM): 89.3%
viability, T/C (second compound 1 µM, first compound 0.00316 µM): 107%
viability, T/C (second compound 1 µM, first compound 0.01 µM): 109%
viability, T/C (second compound 1 µM, first compound 0.0316 µM): 93%
viability, T/C (second compound 1 µM, first compound 0.1 µM): 86.6%
viability, T/C (second compound 1 µM, first compound 0.316 µM): 77.1%
viability, T/C (second compound 1 µM, first compound 1 µM): 85.3%
viability, T/C (second compound 3.16 µM, first compound 0.00316 µM): 64.5%
viability, T/C (second compound 3.16 µM, first compound 0.01 µM): 64.1%
viability, T/C (second compound 3.16 µM, first compound 0.0316 µM): 60.2%
viability, T/C (second compound 3.16 µM, first compound 0.1 µM): 47.3%
viability, T/C (second compound 3.16 µM, first compound 0.316 µM): 43.5%
viability, T/C (second compound 3.16 µM, first compound 1 µM): 52.8%
viability, T/C (second compound 10 µM, first compound 0.00316 µM): 41.9%
viability, T/C (second compound 10 µM, first compound 0.01 µM): 45.8%
viability, T/C (second compound 10 µM, first compound 0.0316 µM): 36.1%
viability, T/C (second compound 10 µM, first compound 0.1 µM): 34%
viability, T/C (second compound 10 µM, first compound 0.316 µM): 30%
viability, T/C (second compound 10 µM, first compound 1 µM): 30.1%
